{"source": "paper PMC5434977", "about": "(Analytical chemistry, 2016)", "key": {"hpMTAN [1]": {"target": "T1, hpMTAN (Helicobacter pylori, UniProt Q9ZMY2)", "T1 sequence (Q9ZMY2 1-230)": "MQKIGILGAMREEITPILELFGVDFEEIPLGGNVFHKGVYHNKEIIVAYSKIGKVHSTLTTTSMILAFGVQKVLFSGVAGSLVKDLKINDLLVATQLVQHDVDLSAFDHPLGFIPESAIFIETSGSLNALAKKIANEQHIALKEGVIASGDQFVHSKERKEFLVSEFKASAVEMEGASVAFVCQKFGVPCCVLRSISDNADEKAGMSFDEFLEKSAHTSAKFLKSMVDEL", "test": "Ki* by 2AMTA fluorescence-based assay, Morrison fit, hpMTAN", "assay_type": "biochemical", "conditions": "read-out: Ki∗ measured, 1–3 mM 2AMTA as substrate, slow-onset tight-binding, Morrison equation"}, "hsMTAP [2]": {"target": "T2, hsMTAP (Homo sapiens, UniProt Q13126)", "T2 sequence (Q13126 1-283)": "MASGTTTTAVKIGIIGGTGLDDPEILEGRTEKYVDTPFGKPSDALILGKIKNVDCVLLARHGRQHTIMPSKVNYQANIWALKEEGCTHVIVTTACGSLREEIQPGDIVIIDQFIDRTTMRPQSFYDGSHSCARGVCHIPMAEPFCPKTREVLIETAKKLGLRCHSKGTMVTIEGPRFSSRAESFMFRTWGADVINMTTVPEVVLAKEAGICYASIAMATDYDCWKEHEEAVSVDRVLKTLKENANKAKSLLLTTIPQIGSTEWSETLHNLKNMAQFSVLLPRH", "test": "Ki* by 2AMTA fluorescence-based assay, Morrison fit, hsMTAP", "assay_type": "biochemical", "conditions": "read-out: Ki∗ measured, 1–3 mM 2AMTA as substrate, slow-onset tight-binding, Morrison equation"}, "hsMTAP [3]": {"target": "T2, hsMTAP", "conditions": "read-out: Ki∗ literature, ref [21],[22]; cited from earlier work"}, "hpMTAN [4]": {"target": "T1, hpMTAN", "conditions": "read-out: Ki∗ literature, ref [21],[22]; cited from earlier work"}, "hsMTAP [5]": {"target": "T2, hsMTAP", "test": "MTAP pre-steady-state stopped-flow kinetics", "conditions": "10 μM 2AMTA, 5 μM MTAP"}, "Human MTAP": {"target": "T3, Human MTAP (Homo sapiens, UniProt Q13126)", "T3 sequence (Q13126 1-283)": "T2 sequence (Q13126 1-283)", "test": "2AMTA continuous fluorescence kinetic assay with hsMTAP", "assay_type": "biochemical"}, "Helicobacter pylori MTAN": {"target": "Helicobacter pylori MTAN (Helicobacter pylori, UniProt Q9ZMY2)", "test": "2AMTA continuous fluorescence kinetic assay with hpMTAN", "assay_type": "biochemical"}, "[6]": {"system": "Streptococcus pneumoniae MTAN", "assay_type": "biochemical"}, "Vibrio cholerae MTAN": {"target": "Vibrio cholerae MTAN (Vibrio cholerae serotype O1, UniProt Q9KPI8)", "sequence (Q9KPI8 whole entry)": "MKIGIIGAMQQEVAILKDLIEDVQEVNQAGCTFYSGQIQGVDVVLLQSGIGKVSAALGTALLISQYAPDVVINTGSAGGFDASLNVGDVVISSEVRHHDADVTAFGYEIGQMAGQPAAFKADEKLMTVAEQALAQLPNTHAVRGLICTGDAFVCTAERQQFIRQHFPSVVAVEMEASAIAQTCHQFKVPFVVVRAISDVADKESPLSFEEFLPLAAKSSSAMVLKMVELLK", "assay_type": "biochemical", "conditions": "enzyme concentration 1 μM, substrate concentration 1 mM"}, "Yersinia pestis MTAN": {"system": "Yersinia pestis MTAN", "assay_type": "biochemical"}, "hsMTAP [7]": {"target": "T2, hsMTAP", "conditions": "substrate MTA, ref [20],[28],[29]; cited from earlier work"}, "hpMTAN [8]": {"target": "T1, hpMTAN", "conditions": "substrate MTA, ref [20],[28],[29]; cited from earlier work"}, "ecMTAN": {"system": "ecMTAN", "conditions": "substrate MTA, ref [20],[28],[29]; cited from earlier work"}, "[9]": {"system": "Saccharomyces cerevisiae adenine phosphoribosyltransferase (scAPRTase)", "test": "2,6-diaminopurine fluorescence assay of scAPRTase", "assay_type": "biochemical", "conditions": "1 mM PRPP"}, "[10]": {"conditions": "substrate 2AMTA, 100 mM potassium phosphate pH 7.4"}}, "note": "Read-outs that look alike come from different tables or passages of the source.", "data": [{"compound": "CSCC1NC(c2c[nH]c3c(N)ncnc23)[C@@H](O)[C@H]1O", "note": "(stereo partly drawn) [MT-ImmA, Methylthio-Immucillin-A]", "values": [{"measurement": "Ki", "setting": "hpMTAN [1]", "result": "66 ± 11", "unit": "pM"}, {"measurement": "Ki", "setting": "hsMTAP [2]", "result": "330 ± 68", "unit": "pM"}, {"measurement": "Ki", "setting": "hsMTAP [3]", "result": "1000 ± 500", "unit": "pM"}, {"measurement": "Ki", "setting": "hpMTAN [4]", "result": "40 ± 20", "unit": "pM"}]}, {"compound": "Nc1ncnc2c(CN3CC(CSc4ccc(Cl)cc4)[C@H](O)C3)c[nH]c12", "note": "(stereo partly drawn) [pCl-PhT-DADMe-ImmA, pCl-PhT-DADMe-Immucillin-A]", "values": [{"measurement": "Ki", "setting": "hpMTAN [1]", "result": "360 ± 32", "unit": "pM"}, {"measurement": "Ki", "setting": "hsMTAP [2]", "result": "47 ± 13", "unit": "pM"}, {"measurement": "Ki", "setting": "hsMTAP [3]", "result": "10 ± 5", "unit": "pM"}, {"measurement": "Ki", "setting": "hpMTAN [4]", "result": "570 ± 90", "unit": "pM"}]}, {"compound": "2-amino-5′-methylthioadenosine [2AMTA]", "values": [{"measurement": "apparent turnover rate (pre-steady-state)", "setting": "hsMTAP [5]", "result": "270 ± 1", "unit": "s⁻¹"}, {"measurement": "decrease of catalytic efficiency (kcat/KM) with 2AMTA relative to MTA", "setting": "Human MTAP", "result": "~10", "unit": "fold"}, {"measurement": "Km", "setting": "Human MTAP; [10]", "result": "34 ± 7", "unit": "µM"}, {"measurement": "kcat", "setting": "Human MTAP; [10]", "result": "1.7 ± 0.2", "unit": "s⁻¹"}, {"measurement": "decrease of catalytic efficiency (kcat/KM) with 2AMTA relative to MTA", "setting": "Helicobacter pylori MTAN", "result": "~10", "unit": "fold"}, {"measurement": "Km", "setting": "Helicobacter pylori MTAN; [10]", "result": "3.1 ± 0.5", "unit": "µM"}, {"measurement": "kcat", "setting": "Helicobacter pylori MTAN; [10]", "result": "7.0 ± 0.4", "unit": "s⁻¹"}, {"measurement": "hydrolysis of 2AMTA", "setting": "[6]; enzyme concentration 1 μM, substrate concentration 1 mM", "result": "unable to hydrolyze 2AMTA at significant rates"}, {"measurement": "kcat", "setting": "[6]; substrate 2AMTA, Streptococcus pneumoniae MTAN, 1 μM enzyme, 1 mM 2AMTA", "result": "<10^−5 s^−1"}, {"measurement": "hydrolysis of 2AMTA", "setting": "Vibrio cholerae MTAN", "result": "unable to hydrolyze 2AMTA at significant rates"}, {"measurement": "Km", "setting": "Yersinia pestis MTAN", "result": "11 ± 4.4", "unit": "µM"}, {"measurement": "kcat", "setting": "Yersinia pestis MTAN; substrate 2AMTA, Yersinia pestis MTAN", "result": "1.1 ± 0.28", "unit": "s⁻¹"}]}, {"compound": "5′-methylthioadenosine [MTA]", "values": [{"measurement": "Km", "setting": "hsMTAP [7]", "result": "5 ± 1", "unit": "µM"}, {"measurement": "kcat", "setting": "hsMTAP [7]", "result": "2.5 ± 0.7", "unit": "s⁻¹"}, {"measurement": "Km", "setting": "hpMTAN [8]", "result": "0.6 ± 0.3", "unit": "µM"}, {"measurement": "kcat", "setting": "hpMTAN [8]", "result": "12.1 ± 2.3", "unit": "s⁻¹"}, {"measurement": "Km", "setting": "ecMTAN", "result": "0.19 ± 0.02", "unit": "µM"}, {"measurement": "kcat", "setting": "ecMTAN", "result": "2.3 ± 0.1", "unit": "s⁻¹"}]}, {"compound": "CSC[C@H]1CN(Cc2c[nH]c3c(N)ncnc23)C[C@@H]1O", "note": "[MT-DADMe-ImmA, Methylthio-DADMe-Immucillin-A]", "values": [{"measurement": "Ki", "setting": "hpMTAN [1]", "result": "15 ± 1.4", "unit": "pM"}, {"measurement": "Ki", "setting": "hsMTAP [2]", "result": "63 ± 10", "unit": "pM"}, {"measurement": "Ki", "setting": "hsMTAP [3]", "result": "90 ± 10", "unit": "pM"}, {"measurement": "Ki", "setting": "hpMTAN [4]", "result": "89 ± 19", "unit": "pM"}]}, {"compound": "Nc1nc(N)c2[nH]cnc2n1", "note": "[2,6-diaminopurine]", "values": [{"measurement": "fold decreased kcat compared to adenine", "setting": "[9]", "result": "~400", "unit": "fold"}, {"measurement": "fold increased KM compared to adenine", "setting": "[9]", "result": "approximately 2 fold"}, {"measurement": "kcat/KM reduced by a factor compared to adenine", "setting": "[9]", "result": 800, "unit": "fold"}]}]}
